Patent publication US20240279202A1 (NURIX THERAPEUTICS, INC., priority 2021, published 2024)

Molecular target: T1, ITK (Homo sapiens, UniProt Q08881)
T1 sequence (Q08881 1-620): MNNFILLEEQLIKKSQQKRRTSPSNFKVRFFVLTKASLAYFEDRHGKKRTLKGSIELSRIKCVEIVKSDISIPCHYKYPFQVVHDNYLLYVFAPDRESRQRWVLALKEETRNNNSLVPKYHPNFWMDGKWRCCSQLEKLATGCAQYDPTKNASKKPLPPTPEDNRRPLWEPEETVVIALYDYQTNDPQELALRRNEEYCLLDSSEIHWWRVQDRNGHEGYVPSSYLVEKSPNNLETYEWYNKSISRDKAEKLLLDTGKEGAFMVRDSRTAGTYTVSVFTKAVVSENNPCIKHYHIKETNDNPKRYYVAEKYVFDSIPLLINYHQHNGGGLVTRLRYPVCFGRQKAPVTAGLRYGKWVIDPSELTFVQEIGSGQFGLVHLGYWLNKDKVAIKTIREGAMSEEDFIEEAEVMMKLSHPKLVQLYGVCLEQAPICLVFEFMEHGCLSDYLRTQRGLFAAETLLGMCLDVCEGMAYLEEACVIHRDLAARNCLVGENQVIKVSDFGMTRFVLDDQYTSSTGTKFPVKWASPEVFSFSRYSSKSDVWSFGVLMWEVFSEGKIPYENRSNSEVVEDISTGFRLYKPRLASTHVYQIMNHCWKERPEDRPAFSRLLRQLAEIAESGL
Experiment: ITK degradation HiBiT assay
Format: cell-based
Design: expressed in transfected cells; host or cells: Molt4 (ATCC CRL-1552), monoclonal clone 1C10, engineered to carry the HiBiT tag
Conditions: 4 hrs; for DC50: C-terminal HiBiT-tagged Molt4 cells; for Dmax: MOLT-4, C-terminal HiBiT-tagged Molt4 cells
How it was run: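 C-terminal HiBiT-tagged Molt4 cells (clone 1C10) treated 4 h at 32° C with an 11-point, 5-fold compound dilution series (0.5% DMSO). HiBiT lytic detection with LgBiT then luminescence read; % ITK remaining versus concentration fit by four-parameter variable-slope model to give DC50 and Dmax.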

## C[C@@]12Cc3[nH]nc(C(=O)Nc4cnn(CC5CN(C[C@H]6CCN(c7ccc8c(c7)C(=O)N(C7CCC(=O)NC7=O)C8=O)C6)C5)c4)c3C[C@@H]1C2(F)F (stereo partly drawn) [Compound 44, (4aS,5aR)-N-(1-((1-(((3R)-1-(2-(2,6-dioxopiperidin-3-yl)-1,3-dioxoisoindolin-5-yl)pyrrolidin-3-yl)methyl)azetidin-3-yl)methyl)-1H-pyrazol-4-yl)-5,5-difluoro-5a-methyl-1,4,4a,5,5a,6-hexahydrocyclopropa[f]indazole-3-carboxamide]
  DC50: 2.4 nM
  Dmax: 88%

## C[C@@]12Cc3[nH]nc(C(=O)Nc4cnn(CC5CN(C(=O)C6CCN(c7ccc(C8CCC(=O)NC8=O)cn7)CC6)C5)c4)c3C[C@@H]1C2(F)F (stereo partly drawn) [Compound 50, (4aS,5aR)-N-(1-((1-(1-(5-(2,6-dioxopiperidin-3-yl)pyridin-2-yl)piperidine-4-carbonyl)azetidin-3-yl)methyl)-1H-pyrazol-4-yl)-5,5-difluoro-5a-methyl-1,4,4a,5,5a,6-hexahydrocyclopropa[f]indazole-3-carboxamide]
  DC50: 0.21 nM

## C[C@@H](C(=O)N(C)c1ccc2cc(-c3n[nH]c4c3CCC(C)(C)C4)[nH]c2c1)N1CCN(CC2CCN(c3cccc4c3n(C)c(=O)n4C3CCC(=O)NC3=O)CC2)CC1 (stereo partly drawn) [Compound 3, (2S)—N-(2-(6,6-dimethyl-4,5,6,7-tetrahydro-1H-indazol-3-yl)-1H-indol-6-yl)-2-(4-((1-(1-(2,6-dioxopiperidin-3-yl)-3-methyl-2-oxo-2,3-dihydro-1H-benzo[d]imidazol-4-yl)piperidin-4-yl)methyl)piperazin-1-yl)-N-methylpropanamide]
  DC50: 0.29 nM
  Dmax: 76%

## C[C@@]12Cc3[nH]nc(C(=O)Nc4cnn(CC5CN(C(=O)C6CN(C7CCN(c8ccc9c(c8)C(=O)N(C8CCC(=O)NC8=O)C9=O)CC7)C6)C5)c4)c3C[C@@H]1C2(F)F (stereo partly drawn) [Compound 42, (4aS,5aR)-N-(1-((1-(1-(1-(2-(2,6-dioxopiperidin-3-yl)-1,3-dioxoisoindolin-5-yl)piperidin-4-yl)azetidine-3-carbonyl)azetidin-3-yl)methyl)-1H-pyrazol-4-yl)-5,5-difluoro-5a-methyl-1,4,4a,5,5a,6-hexahydrocyclopropa[f]indazole-3-carboxamide]
  DC50: 2.9 nM
  Dmax: 93%

## C[C@@H](C(=O)N(C)c1ccc2cc(-c3n[nH]c4c3C[C@@H]3C(F)(F)[C@]3(C)C4)[nH]c2c1)N1CCN(C[C@H]2CCN(c3ccc4c(c3)C(=O)N(C3CCC(=O)NC3=O)C4=O)C2)CC1 (stereo partly drawn) [Compound 9, (2S)—N-(2-((4aS,5aR)-5,5-difluoro-5a-methyl-1,4,4a,5,5a,6-hexahydrocyclopropa[f]indazol-3-yl)-1H-indol-6-yl)-2-(4-(((3R)-1-(2-(2,6-dioxopiperidin-3-yl)-1,3-dioxoisoindolin-5-yl)pyrrolidin-3-yl)methyl)piperazin-1-yl)-N-methylpropanamide]
  DC50: 0.21 nM
  Dmax: 85%

## CC1(C)CCc2c(-c3cc4ccc(C(=O)N5CCN(CC6CCN(c7ccc(C8CCC(=O)NC8=O)cn7)CC6)CC5)cc4[nH]3)n[nH]c2C1 (stereo not shown) [Compound 47, 3-(6-(4-((4-(2-(6,6-dimethyl-4,5,6,7-tetrahydro-1H-indazol-3-yl)-1H-indole-6-carbonyl)piperazin-1-yl)methyl)piperidin-1-yl)pyridin-3-yl)piperidine-2,6-dione]
  DC50: 4.6 nM

## C[C@@H](C(=O)N(C)c1ccc2cc(-c3n[nH]c4c3CCC(C)(C)C4)[nH]c2c1)N1CCN(C[C@H]2CCN(c3ccc4c(c3)n(C)c(=O)n4C3CCC(=O)NC3=O)C2)CC1 (stereo partly drawn) [Compound 5, (2S)—N-(2-(6,6-dimethyl-4,5,6,7-tetrahydro-1H-indazol-3-yl)-1H-indol-6-yl)-2-(4-(((3R)-1-(1-(2,6-dioxopiperidin-3-yl)-3-methyl-2-oxo-2,3-dihydro-1H-benzo[d]imidazol-5-yl)pyrrolidin-3-yl)methyl)piperazin-1-yl)-N-methylpropanamide]
  DC50: 1.3 nM
  Dmax: 74%

## C[C@@H](C(=O)N(C)c1ccc2cc(-c3n[nH]c4c3CCC(C)(C)C4)[nH]c2c1)N1CCN(CC2CCN(c3ccc(C4CCC(=O)NC4=O)cn3)CC2)CC1 (stereo partly drawn) [Compound 10, (2S)—N-(2-(6,6-dimethyl-4,5,6,7-tetrahydro-1H-indazol-3-yl)-1H-indol-6-yl)-2(4-((1-(5-(2,6-dioxopiperidin-3-yl)pyridin-2-yl)piperidin-4-yl)methyl)piperazin-1-yl)-N-methylpropanamide]
  DC50: 0.48 nM
